Source: ChEMBL document CHEMBL1201862, “PubChem BioAssay data set” (2004)
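Exposure lasted 48 hours, with cells grown in 96-well plates and compounds tested at five concentrations. GI50 marks 50% less growth.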 Activity calls are given as the source filed them. Rule as the data show it: active = GI50 up to about 1.1 µM and inactive = higher.

Columns and labels:
Assay in all cases: growth of human tumour cells (NCI), 48 h
CCRF-CEM = test system: CCRF-CEM
HOP-62 = test system: HOP-62
HT-29 = test system: HT-29
IGROV-1 = test system: IGROV-1
K562 = test system: K562
NCI-H23 = test system: NCI-H23
NCI-H460 = test system: NCI-H460
NCI-H522 = test system: NCI-H522
OVCAR-3 = test system: OVCAR-3
RPMI-8226 = test system: RPMI-8226
SF-268 = test system: SF-268
SF-295 = test system: SF-295
SK-MEL-28 = test system: SK-MEL-28
SK-MEL-2 = test system: SK-MEL-2
SK-MEL-5 = test system: SK-MEL-5
SN12C = test system: SN12C
SNB-19 = test system: SNB-19
SNB-75 = test system: SNB-75
SW-620 = test system: SW-620
UACC-257 = test system: UACC-257

Measured: GI50

Cc1ccc(CCC(=O)C(=O)O)s1
inactive: CCRF-CEM > 100 µM | HOP-62 > 100 µM | HT-29 > 100 µM | IGROV-1 > 100 µM | K562 > 100 µM | NCI-H23 > 100 µM | NCI-H460 > 100 µM | NCI-H522 > 100 µM | OVCAR-3 > 100 µM | RPMI-8226 > 100 µM | SF-268 > 100 µM | SF-295 > 100 µM | SK-MEL-28 > 100 µM | SK-MEL-2 > 100 µM | SK-MEL-5 > 100 µM | SN12C > 100 µM | SNB-19 > 100 µM | SNB-75 > 100 µM | SW-620 > 100 µM | UACC-257 > 100 µM

CC1C(=O)N(c2ccccc2)NC12CCCc1ccccc12 (stereo not given)
inactive: CCRF-CEM > 100 µM | HOP-62 > 100 µM | HT-29 > 100 µM | IGROV-1 > 100 µM | K562 > 100 µM | NCI-H23 > 100 µM | NCI-H460 > 100 µM | NCI-H522 > 100 µM | OVCAR-3 > 100 µM | RPMI-8226 > 100 µM | SF-268 > 100 µM | SF-295 > 100 µM | SK-MEL-28 > 100 µM | SK-MEL-2 > 100 µM | SK-MEL-5 > 100 µM | SN12C > 100 µM | SNB-19 > 100 µM | SNB-75 > 100 µM | SW-620 > 100 µM | UACC-257 > 100 µM

Cc1cc2c(ccc[n+]2[O-])[n+]([O-])c1
inactive: CCRF-CEM > 100 µM | HOP-62 > 100 µM | HT-29 > 100 µM | IGROV-1 > 100 µM | K562 > 100 µM | NCI-H23 > 100 µM | NCI-H460 > 100 µM | NCI-H522 > 100 µM | OVCAR-3 > 100 µM | RPMI-8226 > 100 µM | SF-268 > 100 µM | SF-295 > 100 µM | SK-MEL-28 > 100 µM | SK-MEL-2 > 100 µM | SK-MEL-5 > 100 µM | SN12C > 100 µM | SNB-19 > 100 µM | SNB-75 > 100 µM | SW-620 > 100 µM | UACC-257 > 100 µM

NC(Cc1c[nH]c2ccccc12)C(=O)O (stereo not drawn) [DL-TRYPTOPHAN]
inactive: CCRF-CEM > 300 µM | HOP-62 > 300 µM | HT-29 > 300 µM | IGROV-1 > 300 µM | K562 204 µM | NCI-H23 > 300 µM | NCI-H460 > 300 µM | NCI-H522 > 300 µM | OVCAR-3 > 300 µM | RPMI-8226 > 300 µM | SF-268 > 300 µM | SF-295 > 300 µM | SK-MEL-28 > 300 µM | SK-MEL-2 > 300 µM | SK-MEL-5 > 300 µM | SN12C 3.74 µM | SNB-19 > 300 µM | SNB-75 > 300 µM | SW-620 > 300 µM | UACC-257 > 300 µM

Nc1n[nH]c(N)n1 [GUANAZOLE]
inactive: CCRF-CEM 1720 µM | HOP-62 2360 µM | HT-29 5060 µM | IGROV-1 7000 µM | K562 7110 µM | NCI-H23 5300 µM | NCI-H460 3270 µM | NCI-H522 2680 µM | OVCAR-3 > 10000 µM | RPMI-8226 4670 µM | SF-268 5740 µM | SF-295 2360 µM | SK-MEL-28 > 6150 µM | SK-MEL-2 > 9790 µM | SK-MEL-5 3940 µM | SN12C 4930 µM | SNB-19 9980 µM | SNB-75 9250 µM | SW-620 > 9380 µM | UACC-257 6430 µM
